Experimental data published in patent US7625887B2, “Receptor agonists” (Takeda Pharmaceutical Company Limited, priority 2003, dated 2009).

Assays:
[1] = system: guinea pig intestine primary culture cells; assay: GLP-1 secretion from guinea pig intestine primary culture cells; format: cell-based; conditions: bile acid 50 μM, 90 min
Procedure: Colon mucous membrane of guinea pig (Hartley, male, Charles River Japan, Inc.) was removed and subjected to an enzyme treatment to give a cell dispersion according to the following method.
(§1) The enzyme solution used was obtained by dissolving 5 mg/ml Collagenase (Sigma), 5 mg/ml Hyaluronidase (Sigma) and 0.5 mg/ml DNaseI (Sigma) in a medium. The medium used was Dulbecco's Modified Eagle Medium (DMEM, Invitrogen) supplemented with 4.5 g/l Glucose, 5% FBS (Invitrogen), 100 units/ml Penicillin (Invitrogen), 100 μg/ml Streptomycin (Invitrogen), 50 μg/ml Gentamicin (Invitrogen) and 20 mM Hepes (pH 7.3). After digestion by the enzyme solution at 37° C., the tissue sections were prepared into dispersed cells by passing through a pipette 4 times and the cells were collected. The collected cells were washed with a buffer (incubation buffer) obtained by adding 5.5 mM Glucose and 0.1% BSA to a modified Krebs-Ringer bicarbonate buffer (KRBH, 116 mM NaCl, 4.7 mM KCl, 1.2 mM KH2PO4, 1.2 MM MgSO4, 2.5 mM CaCl2, 25 mM NaHCO3, 24 mM HEPES, pH 7.3), and preincubated at 37° C. under 5% CO2 for 30 min. 0.1 μM Phorbol ester (Wako), 1% DPPIV inhibitor (Linco) and a test compound were added to the above-mentioned incubation buffer, and the obtained buffer was added to the cells after the aforementioned preincubation and incubated for 90 min. The culture supernatant was collected and cryopreserved. The concentration of GLP-1 released in the culture supernatant was measured using an ELISA kit (Linco).

THP-TGR5 cells = assay: suppression of LPS induced TNF α secretion in THP-TGR5 cells; format: cell-based, human; conditions: bile acid 50 μM, non-addition: 11 with LPS, 2.7 without LPS
Procedure: TGR5 high expression cells were established by introducing TGR5 gene into human macrophage cells line THP-1. According to a conventional method, pcDNA-TGR5 incorporating cDNA of human TGR5 in pcDNA3.1 (Invitrogen) was prepared. Then, THP-1 was cultured in a medium (RPMI1640 10% FBS), and pcDNA-TGR5 was introduced thereinto using lipofectamine (Gibco BRL) according to conventional methods. Thereafter, G418 (Gibco BRL) was added to the medium to select resistant strains, and cells line, THP-TGR5 that expresses TGR5 stably and highly was established.
THP-TGR5 thus obtained was diluted to a concentration of 1×10^5/well and cultured overnight in a 96 well plate in the presence of 10^−8M phorbol ester (Wako Pure Chemical Industries, Ltd.). THP-TGR5 after culture was cultured for 1 hr in a medium containing a test compound or a control medium (0.1 ml) free of a test compound, 0.1 ml of a medium containing the same concentration of the test compound or a control medium free of the test compound, each of which containing LPS for induction of TNF α secretion was added (concentration at the time of addition 50 ng/ml) and the mixture was incubated at 37° C. under 5% CO2 for 14 hrs. The culture supernatant was collected and the TNF α content was measured with the growth suppressing effect on the TNF sensitive cell line L929 (RIKEN Institute) as an index.
L929 cells were seeded in a 96 well plate at 1.2×10^4/well and incubated overnight at 37° C. under 5% CO2. The obtained culture product was cultured overnight in a medium (phenol red free Dulbecco's Modified Eagle Medium (Invitrogen) supplemented with 10% fetal bovine serum (Invitrogen), 100 U/ml penicillin and 100 μg/ml streptomycin), which contained the aforementioned THP-TGR5-containing culture supernatant and 2 μg/ml Actinomycin D (Wako Pure Chemical Industries, Ltd.). The TNF α content was determined by measuring the growth of the L929 cells in the obtained culture product using a Cell Counting Kit-8 (Wako Pure Chemical Industries, Ltd.). As the standard sample, human recombinant TNF α (Genzyme) was used.

[2] = system: guinea pig peripheral blood mononuclear cells; assay: IL-6 secretion in LPS-stimulated guinea pig peripheral blood mononuclear cells; format: cell-based; conditions: 16 hrs, bile acid 50 μM; non-addition: 520 with LPS, 32 without
Procedure: (§2) The peripheral blood was taken from guinea pig, and mononuclear cell fraction was obtained by a density separation method using Ficoll-Paque PLUS (Amersham Pharmacia). The fraction at a concentration of 1×10^5/well was cultured for 16 hrs in the presence of […] LPS in a 96-well plate upon addition of bile acid or a test compound. The culture supernatant was collected and TNF and IL-6 in the supernatant were quantitated.
The quantitation of IL-6 in the culture supernatant was performed using IL-6 dependent cell line 7TD1 (RIKEN Institute) with its growth promoting action as an index. First, 7TD1 cells were suspended in a basic medium (RPMI1640 (Invitrogen) supplemented with 1% non-essential amino acid (Invitrogen) and 55 μM 2-mercaptoethanol (Invitrogen)) and seeded in a 96-well plate at a concentration of 2×10^3/well. Immediately after seeding, peripheral blood mononuclear cell culture supernatant diluted with a dilution medium (the above-mentioned basic medium supplemented with 10% FBS) was added and the cells were cultured for 2 days. The IL-6 content was determined by measuring the growth of the 7TD1 cells in the obtained culture product using a CellTiter-Glo (Promega). As the standard sample, human recombinant IL-6 (Genzyme) was used.

[3] = system: guinea pig peripheral blood mononuclear cells; assay: TNF secretion in LPS-stimulated guinea pig peripheral blood mononuclear cells; format: cell-based; conditions: 16 hrs, bile acid 50 μM; non-addition: 160 with LPS, 13 without
Procedure: as §2
The TNF secretion amount in the culture supernatant was measured in the same manner as in Experimental Example 7.

[4] = system: rat intestine primary culture cells; assay: GLP-1 secretion from rat intestine primary culture cells; format: cell-based; conditions: bile acid 100 μM, 150 min
Procedure: Terminal ileum and colon mucous membrane were removed from rat (Wistar, male, Charles River Japan, Inc.) and subjected to an enzyme treatment to give a cell dispersion according to the following method.
as §1, with “pipette 7” for “pipette 4”, “1.2 mM” for “1.2 MM”, “for 150” for “for 90”

C[C@H](CCC(=O)NCCS(=O)(=O)O)[C@H]1CC[C@H]2[C@@H]3CC[C@@H]4C[C@H](O)CC[C@]4(C)[C@H]3CC[C@]12C [TLCA, taurolithocholic acid, reference compound]
GLP-1 (% relative to non-addition) [1]: 400 % relative to non-addition | TNF α (THP-TGR5 cells): 0.22 ng/mL | IL-6 [2]: 260 pg/mL | TNF α [3]: 60 pg/mL | GLP-1 (% relative to non-addition) [4]: 290 % relative to non-addition
